Laboratory results: US12157730B2, “Heteroaryl derivative, method for producing same, and pharmaceutical composition comprising same as effective component” (VORONOI INC., priority 2019, dated 2024)

Target: T1, Ba/F3 cell EGFR Exon20 ins NPH (Homo sapiens, UniProt P00533, INS773NPH)
T1 construct: expressed in transfected cells; host or cells: Ba/F3
Test: Ba/F3 cell proliferation suppression, EGFR Exon20 ins NPH
Assay type: cell-based
Details: GI50 class; Ba/F3 cell line with NPH inserted at Exon20 of EGFR; 72 hours
Summary of the method: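 Growth suppression determined as GI50 following 72 h exposure across 12 concentrations up to 50 um, with viability by luminescent ATP assay (CellTiter-Glo).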

Structure (SMILES) | Ba/F3 (NPH) Activity
C=CC(=O)Nc1cc(Nc2cc(N3OCC[C@@H]3c3ccc(F)cc3F)ncn2)c(OC)cc1N1C[C@H]2C[C@@H]1CN2CC [compound 385, N-(5-((6-((R)-3-(2,4-difluorophenyl)isoxazolidine-2-yl)pyrimidine-4-yl)amino)-2-((1R,4R)-5-ethyl-2,5-diazabicyclo[2.2.1]heptane-2-yl)-4-methoxyphenyl) acrylamide] | A (GI50 < 50 nM)
C=CC(=O)Nc1cc(Nc2cc(N3OCC[C@@H]3c3ccc4ccccc4c3)ncn2)c(OC)cc1N1CCO[C@@H](C)C1 [compound 659, N-(4-methoxy-2-((S)-2-methylmorpholino)-5-((6-((R)-3-(naphthalene-2-yl)isoxazolidine-2-yl)pyrimidine-4-yl)amino)phenyl)acrylamide] | B (50 nM ≤ GI50 < 500 nM)
C=CC(=O)Nc1cc(Nc2cc(N3OCC[C@@H]3Cc3cccc(Cl)c3OC)ncn2)c(OC)cc1N1CCC(N2CCN(C3CC3)CC2)CC1 [compound 1054, N-(5-((6-((S)-3-(3-chloro-2-methoxybenzyl)isoxazolidine-2-yl)pyrimidine-4-yl)amino)-2-(4-(4-cyclopropylpiperazine-1-yl)piperidine-1-yl)-4-methoxyphenyl) acrylamide] | A (GI50 < 50 nM)
C=CC(=O)Nc1cc(Nc2cc(N3OCC[C@@H]3c3cccc(OC)c3)ncn2)c(OC)cc1N1CCC(N2C[C@@H](C)O[C@@H](C)C2)CC1 [compound 727, N-(2-(4-((2S,6R)-2,6-dimethylmorpholino)piperidine-1-yl)-4-methoxy-5-((6-((R)-3-(3-methoxyphenyl)isoxazolidine-2-yl)pyrimidine-4-yl)amino)phenyl)acrylamide] | A (GI50 < 50 nM)
C=CC(=O)Nc1cc(Nc2cc(N3OCC[C@@H]3c3cccc(F)c3F)ncn2)c(OC)cc1N1C[C@@H]2CCN(C)[C@@H]2C1 [compound 876, N-(5-((6-((R)-3-(2,3-difluorophenyl)isoxazolidine-2-yl)pyrimidine-4-yl)amino)-4-methoxy-2-((3aS,6aS)-1-methylhexahydropyrrolo [3,4-b]pyrrole-5(1H)-yl)phenyl) acrylamide] | A (GI50 < 50 nM)
C=CC(=O)Nc1cc(Nc2cc(N3OCC[C@@H]3Cc3cccc(F)c3C)ncn2)c(OC)cc1N1CCN(CC)CC1 [compound 1003, N-(2-(4-ethylpiperazine-1-yl)-5-((6-(S)-(3-(3-fluoro-2-methylbenzyl)isoxazolidine-2-yl)pyrimidine-4-yl)amino)-4-methoxyphenyl) acrylamide] | A (GI50 < 50 nM)
C=CC(=O)Nc1cc(Nc2cc(N3OCC[C@@H]3c3ccc(F)c(F)c3)ncn2)c(OC)cc1N1CC[C@@H](N(C)C)C1 [compound 577, N-(5-((6-((R)-3-(3,4-difluorophenyl)isoxazolidine-2-yl)pyrimidine-4-yl)amino)-2-((R)-3-(dimethylamino)pyrolidine-1-yl)-4-methoxyphenyl) acrylamide] | A (GI50 < 50 nM)
C=CC(=O)Nc1cc(Nc2cc(N3OCC[C@@H]3c3cc(F)ccc3F)ncn2)c(OC)cc1N1CCC(N2CCN(C(C)C)CC2)CC1 [compound 303, N-(5-((6-((R)-3-(2,5-difluorophenyl)isoxazolidine-2-yl)pyrimidine-4-yl)amino)-2-(4-(4-isopropylpiperazine-1-yl)piperidine-1-yl)-4-methoxyphenyl) acrylamide] | A (GI50 < 50 nM)
C=CC(=O)Nc1cc(Nc2cc(N3OCC[C@@H]3c3cccc(C)c3F)ncn2)c(OC)cc1N1CCC(N2CC[C@@H](N(C)C)C2)CC1 [compound 418, N-(2-(4-((R)-3-(dimethylamino)pyrolidine-1-yl)piperidine-1-yl)-5-((6-((R)-3-(2-fluoro-3-methylphenyl)isoxazolidine-2-yl)pyrimidine-4-yl)amino)-4-methoxyphenyl) acrylamide] | A (GI50 < 50 nM)
C=CC(=O)Nc1cc(Nc2cc(N3OCC[C@@H]3c3ccc(F)c(Cl)c3)ncn2)c(OC)cc1N1CCC(N2CCO[C@@H](C)C2)CC1 [compound 873, N-(5-((6-((R)-3-(3-chloro-4-fluorophenyl)isoxazolidine-2-yl)pyrimidine-4-yl)amino)-4-methoxy-2-(4-((S)-2-methylmorpholino)piperidine-1-yl)phenyl) acrylamide] | A (GI50 < 50 nM)
C=CC(=O)Nc1cc(Nc2cc(N3OCC[C@@H]3c3ccc(Cl)c(Cl)c3)ncn2)c(OC)cc1N1CCN(C(C)C)CC1 [compound 680, N-(5-((6-((R)-3-(3,4-dichlorophenyl)isoxazolidine-2-yl)pyrimidine-4-yl)amino)-2-(4-isopropylpiperazine-1-yl)-4-methoxyphenyl) acrylamide] | A (GI50 < 50 nM)
C#Cc1cccc([C@H]2CCON2c2cc(Nc3cc(NC(=O)C=C)c(N4CCN(C)CC4)cc3OC)ncn2)c1 [compound 617, N-(5-((6-((R)-3-(3-ethynylphenyl)isoxazolidine-2-yl)pyrimidine-4-yl)amino)-4-methoxy-2-(4-methylpiperazine-1-yl)phenyl)acrylamide] | A (GI50 < 50 nM)
C=CC(=O)Nc1cc(Nc2cc(N3OCC[C@@H]3Cc3cccc(Cl)c3F)ncn2)c(OC)cc1N1CCN(C2CC2)CC1 [compound 1017, N-(5-((6-((S)-3-(3-chloro-2-fluorobenzyl)isoxazolidine-2-yl)pyrimidine-4-yl)amino)-2-(4-cyclopropylpiperazine-1-yl)-4-methoxyphenyl) acrylamide] | A (GI50 < 50 nM)
C=CC(=O)Nc1cc(Nc2cc(N3OCC[C@H]3Cc3ccccc3)ncn2)c(OC)cc1N1CCN(C2CCOCC2)CC1 [compound 975, N-(5-((6-((R)-3-benzylisoxazolidine-2-yl)pyrimidine-4-yl)amino)-4-methoxy-2-(4-(tetrahydro-2H-pyran-4-yl)piperazine-1-yl)phenyl)acrylamide] | C (500 nM ≤ GI50 < 5000 nM)
C=CC(=O)Nc1cc(Nc2cc(N3OCC[C@@H]3c3ccccc3)ncn2)c(OC)cc1N1CCC(N2CCN(C3CC3)CC2)CC1 [Example 56, N-(2-(4-(4-cyclopropylpiperazine-1-yl)piperidine-1-yl)-4-methoxy-5-((6-((R)-3-phenylisoxazolidine-2-yl)pyrimidine-4-yl)amino)phenyl) acrylamide] | A (GI50 < 50 nM)
C=CC(=O)Nc1cc(Nc2cc(N3OCC[C@@H]3c3cc(F)cc(Cl)c3)ncn2)c(OC)cc1N1CCC(N2CCN(C3CCC3)CC2)CC1 [Example 189, N-(5-((6-((R)-3-(3-chloro-5-fluorophenyl)isoxazolidine-2-yl)pyrimidine-4-yl)amino)-2-(4-(4-cyclobutylpiperazine-1-yl)piperidine-1-yl)-4-methoxyphenyl) acrylamide] | A (GI50 < 50 nM)
C=CC(=O)Nc1cc(Nc2cc(N3OCC[C@@H]3c3cccc(Cl)c3F)ncn2)c(OC)cc1N1CCC(N2CCN(CC)CC2)CC1 [compound 913, N-(5-((6-((R)-3-(3-chloro-2-fluorophenyl)isoxazolidine-2-yl)pyrimidine-4-yl)amino)-2-(4-(4-ethylpiperazine-1-yl)piperidine-1-yl)-4-methoxyphenyl) acrylamide] | A (GI50 < 50 nM)
C=CC(=O)Nc1cc(Nc2cc(N3OCC[C@@H]3c3ccc(Cl)c(Cl)c3F)ncn2)c(OC)cc1N1CCC(N2C[C@@H]3C[C@H]2CO3)CC1 [compound 770, N-(2-(4-((1S,4S)-2-oxa-5-azabicyclo [2.2.1]heptane-5-yl)piperidine-1-yl)-5-((6-((R)-3-(3,4-dichloro-2-fluorophenyl)isoxazolidine-2-yl)pyrimidine-4-yl)amino)-4-methoxyphenyl) acrylamide] | A (GI50 < 50 nM)
C=CC(=O)Nc1cc(Nc2cc(N3OCC[C@@H]3c3ccc(F)cc3)ncn2)c(OC)cc1N1CCC(N2CCN(C(C)=O)CC2)CC1 [compound 809, N-(2-(4-(4-acetylpiperazine-1-yl)piperidine-1-yl)-5-((6-((R)-3-(4-fluorophenyl)isoxazolidine-2-yl)pyrimidine-4-yl)amino)-4-methoxyphenyl) acrylamide] | A (GI50 < 50 nM)
C=CC(=O)Nc1cc(Nc2cc(N3OCC[C@@H]3c3cccc(F)c3)ncn2)c(OC)cc1N1CCC(N2CCN(C)CC2)CC1 [Example 31, N-(5-((6-((R)-3-(3-fluorophenyl)isoxazolidine-2-yl)pyrimidine-4-yl)amino)-4-methoxy-2-(4-(4-methylpiperazine-1-yl)piperidine-1-yl)phenyl) acrylamide] | A (GI50 < 50 nM)
C=CC(=O)Nc1cc(Nc2cc(N3OCC[C@@H]3c3ccc(Cl)cc3)ncn2)c(OC)cc1N1CCC(N2CC[C@H](N(C)C)C2)CC1 [compound 784, N-(5-((6-((R)-3-(4-chlorophenyl)isoxazolidine-2-yl)pyrimidine-4-yl)amino)-2-(4-((S)-3-(dimethylamino)pyrolidine-1-yl)piperidine-1-yl)-4-methoxyphenyl) acrylamide] | A (GI50 < 50 nM)
C=CC(=O)Nc1cc(Nc2cc(N3OCC[C@@H]3c3cc(F)ccc3F)ncn2)c(OC)cc1N1CCOCC1 [compound 825, N-(5-((6-((R)-3-(2,5-difluorophenyl)isoxazolidine-2-yl)pyrimidine-4-yl)amino)-4-methoxy-2-morpholinophenyl) acrylamide] | A (GI50 < 50 nM)
C=CC(=O)Nc1cc(Nc2cc(N3OCC[C@@H]3c3ccc(F)c(F)c3F)ncn2)c(OC)cc1N1CCC(N2C[C@@H](C)O[C@@H](C)C2)CC1 [compound 576, N-(2-(4-((2S,6R)-2,6-dimethylmorpholino)piperidine-1-yl)-4-methoxy-5-((6-((R)-3-(2,3,4-trifluorophenyl)isoxazolidine-2-yl)pyrimidine-4-yl)amino)phenyl)acrylamide] | A (GI50 < 50 nM)
